# Bridge positions count the residues as written; N and C are the ends. Square brackets hold non-standard residues; d marks the D form. Peptide text beside a SMILES is read from it. PEG6 = NCCOCCOCCOCCOCCOCCOCCC(=O)O; R8 = C=CCCCCCC[C@@](C)(N)C(=O)O; S5 = C=CCCC[C@](C)(N)C(=O)O
# System: HCT116 cells
# Experiment: RNA-Seq in HCT116 cells, non-p53 genes / genome-wide transcription
# Format: cell-based, human
# Conditions: DMSO control cells, no Nutlin
# Description: An expectation of our experimental strategy was that the bivalent peptide, which was designed based upon p53AD structure, would selectively block p53 function. […] RNA-Seq experiments in HCT116 cells represented a more rigorous test for selectivity. HCT116 cells express hundreds of sequence-specific, DNA-binding TFs, including high level expression of TFs that define the cell lineage. For HCT116 cells, these TFs include SREBF1, ELF3, JUNB, NR2F1, and MYC. To assess the general impact of the bivalent peptide on pol II transcription, we compared RNA-Seq data from DMSO control cells (i.e. no Nutlin treatment) in the presence/absence of bivalent peptide.
# Electroporation of bivalent peptide into HCT116 cells (RNA-Seq experiment 1): Two 6-well plates (HCT116 cells) were grown to about 80% confluency. Cells were then trypsinized, washed with PBS, and resuspended in 150 μL Neon Buffer R. The cells were then split into two groups: No peptide and 10 μM peptide. The cells were then drawn into a 10 μL Neon pipet tip, electroporated and ejected into 2 mL of McCoy's 5A media without antibiotic. For each experiment, two cell electroporation aliquots were added to media containing either 0.1% DMSO (control) or 10 μM Nutlin-3a (in DMSO, to a final concentration of 0.1%). […]
compound,measurement,value
CC[C@H](C)[C@H](NC(=O)[C@H](CC(=O)O)NC(=O)[C@H](CC(=O)O)NC(=O)[C@@H]1CCCN1C(=O)[C@H](CO)NC(=O)[C@H](CC(C)C)NC(=O)CCOCCOCCOCCOCCOCCOCCNC(=O)[C@H](CCCNC(=N)N)NC(=O)[C@H](CCCNC(=N)N)NC(=O)[C@]1(C)CCCC=CCCCCCC[C@@](C)(NC(=O)[C@H](Cc2ccccc2)NC(=O)[C@H](CCCNC(=N)N)NC(=O)[C@H](CCC(=O)O)NC(=O)[C@H](CCC(N)=O)NC(=O)[C@H](CO)NC(=O)[C@H](CCCNC(=N)N)NC(C)=O)C(=O)N[C@@H](CC(=O)O)C(=O)N[C@@H](CC(C)C)C(=O)N[C@@H](Cc2c[nH]c3ccccc23)C(=O)N[C@@H](CCCCN)C(=O)N[C@@H](CCCNC(=N)N)C(=O)N[C@@H](CC(C)C)C(=O)N1)C(=O)N[C@@H](CCC(=O)O)C(=O)N[C@@H](CCC(N)=O)C(=O)N[C@@H](Cc1c[nH]c2ccccc12)C(=O)N[C@@H](Cc1ccccc1)C(=O)N[C@H](C(=O)N[C@@H](CCC(=O)O)C(=O)N[C@@H](CC(=O)O)C(N)=O)[C@@H](C)O [bivalent peptide] (Ac-RSQERF[R8]DLWKRL[S5]RR[PEG6]LSPDDIEQWFTED-NH2; staple 7-14; N-terminus assumed),effect on pol II transcription genome-wide,minor effect on pol II transcription

# — US20220064238A1, “Methods And Compositions For Modifying Transcription Factor Activity by Targeting The Human Mediator Complex Using Cell Penetrating Memetic Peptides And Methods of Treating Cancer Using The Same” (The Regents of the University of Colorado, a body corporate, priority 2020, published 2022)
